How the values were obtained:
[1] = Dissolution of asphaltenes; type: physicochemical
Thermal stability = type: physicochemical; conditions: 200° C.
[2] = room temperature; cited from earlier work

Row | SMILES | Asphaltenes dissolve in the compound [1] | Thermal stability (Thermal stability) | Solubility in water [2]
1 | CCCCCCCCCCCCN1CCCC1=O [NDDP, N-dodecyl-2-pyrrolidone] | dissolve | – | –
2 | O=C1CCCN1C1CCCCC1 [NCHP, N-cyclohexyl-2-pyrrolidone] | dissolve | – | –
3 | CCCCCCCCN1CCCC1=O [NOP, N-octyl-2-pyrrolidone] | dissolve | stable for at least one week | about 1 g/L

— US11001745B2, “Hydrocarbon recovery composition, method, and system” (THE SASKATCHEWAN RESEARCH COUNCIL, priority 2016, dated 2021)
